Read-outs that look alike come from different tables or passages of the source.
System: Acar3
Format: binding, great reed warbler Acrocephalus arundinaceus
[1] = Table S5, half-life estimated from dissociation in scintillation proximity assay, Acar3
[2] = Table S1, top 94 PSCPL-scoring peptides, SPA, 10µM peptide, 125I β2m, folding over night at 18°C, dissociation measured up to 24 hours at 37°C

Sequence	Stability T½ (h), peptide - Acar3 [1] [h]	Stability T½ of Acar3 in complex with the peptide [2] [min]	Stability T½ (h), peptide - Acar3 [h]	Stability T½ of Acar3 in complex with the peptide [min]
AANMYIYPL [9-mer peptide]	0.1			
AEMRETHWL [9-mer peptide]	5.0	300		
AKIEAPLLL [9-mer peptide]	2.5	150		
AMAAGLSSL [9-mer peptide]	0.3	18		
AMMWRIAQL [9-mer peptide]	0.3	18		
AMPKTIYEL [9-mer peptide]	3.8	228		
AVMFFPFWF [9-mer peptide]	0.6	36		
ETMKPAAMV [9-mer peptide]	2.7	162		
FHMSKPSDL [9-mer peptide]	0.8	48		
FLDKGTYTL [9-mer peptide]	0.3	18		
FLLENAAYL [9-mer peptide]	1.2	72		
FLQGAKWYL [9-mer peptide]	0.1			
FMFDYIPPV [9-mer peptide]	0.2			
FMIVNNFPV [9-mer peptide]	0.3	18		
FQANMFLTL [9-mer peptide]	1.2	72		
FQMGGIGPM [9-mer peptide]	0.7	42		
FRMLAWHVL [9-mer peptide]	0.3	18		
GAMYALANF [9-mer peptide]	0.6	36		
GLAATSFPL [9-mer peptide]	1.5	90		
GMNVTAPAL [9-mer peptide]	0.3	18		
GMVGAEFSL [9-mer peptide]	7.6	456		
GRLVTVNPF [9-mer peptide]	0.5	30		
HELSLFWPL [9-mer peptide]	1.1	66		
ILMEHIHKL [9-mer peptide]	0.2	12		

Sequence	Stability T½ (h), peptide - Acar3 [1] [h]	Stability T½ of Acar3 in complex with the peptide [2] [min]	Stability T½ (h), peptide - Acar3 [h]	Stability T½ of Acar3 in complex with the peptide [min]
IMDASSFTL [9-mer peptide]	1.4	84		
KAMRPWQSF [9-mer peptide]	0.4	24		
KAMSTPFSL [9-mer peptide]	5.3	318		
KIMQVDRPM [9-mer peptide]	2.6	156		
KLMDVVYSI [9-mer peptide]	0.4	24		
KMAAFPETL [9-mer peptide]	0.4	24		
KMNAKAATL [9-mer peptide]	2.1	126		
KQLELFWVI [9-mer peptide]	0.2			
KQLESVMYL [9-mer peptide]	1.3	78		
KQLEYSWVL [9-mer peptide]	0.1			
KQMSQPYAV [9-mer peptide]	4.0	240		
KTAAAAAAF [9-mer peptide]	0.4	24		
KTMMQAHDL [9-mer peptide]	9.9	594		
LDMNVVKEL [9-mer peptide]	0.6	36		
LMDENTYAM [9-mer peptide]	0.4	24		
LMMNGTSAM [9-mer peptide]	0.8	48		
LPLPAQQPF [9-mer peptide]	0.3	18		
LPRWPPPQL [9-mer peptide]	0.3	18		
LQMLGENVL [9-mer peptide]	2.6	156		
LRWLAKSFF [9-mer peptide]	0.5	30		
LTMNLVSDI [9-mer peptide]	4.5	270		
MMMPMFNAF [9-mer peptide]	7.2	432		
MMMSTAVAF [9-mer peptide]	7.3	438		
MMWATAQAL [9-mer peptide]	0.8	48		

Sequence	Stability T½ (h), peptide - Acar3 [1] [h]	Stability T½ of Acar3 in complex with the peptide [2] [min]	Stability T½ (h), peptide - Acar3 [h]	Stability T½ of Acar3 in complex with the peptide [min]
MPMSMPIPM [9-mer peptide]	3.2	192		
MTYKAAFDL [9-mer peptide]	1.8	108		
QAYAAPQLF [9-mer peptide]	1.5	90		
QMSWLPLCV [9-mer peptide]	0.6	36		
QQMFPGAPF [9-mer peptide]	0.4	24		
QWALLPYLF [9-mer peptide]	9.9	594		
RATQPAAEF [9-mer peptide]	1.6	96		
REMINHYQV [9-mer peptide]	0.7	42		
REWSGLNYL [9-mer peptide]	1.9	114		
RMAMIPRTL [9-mer peptide]	0.5	30		
RMMATKDSF [9-mer peptide]	0.4	24		
RMMGKTNPL [9-mer peptide]	0.2			
RQIRMTSTI [9-mer peptide]	0.1			
SLAIDAYPL [9-mer peptide]			2.1	126
SMFERDFHF [9-mer peptide]	0.2			
SMHFYGWSL [9-mer peptide]	0.2			
SMMPEAMTI [9-mer peptide]	0.9	54		
SQMGLSCAL [9-mer peptide]	0.3	18		
STEFIPNLF [9-mer peptide]	0.3	18		
SVYFAAFAF [9-mer peptide]	1.6	96		
SYPPPPASF [9-mer peptide]	0.2	12		
VIMWYNYLF [9-mer peptide]	0.3	18		

Reference: paper PMC10360169 (Frontiers in Immunology, 2023)
